Experimental data published in US20130065818A1, “Arylamide Compounds And Compositions And Uses Thereof” (POLYMEDIX, priority 2006, published 2013).
Values after ≈ are worked out from the molar mass of the structure shown. Read-outs that look alike come from different tables or passages of the source.

Test system: E. coli D31
Test: MIC, control bacteria (Example 8)
Type: cell-based
Experimental: • Mueller-Hinton Broth in tubes was inoculated with 25 ocular isolates of Staphylococcus aureus fluoroquinolone-susceptible, Staphylococcus aureus fluoroquinolone-resistant, Staphylococcus epidermidis (Coagulase-negative Staphylococcus) fluoroquinolone-susceptible, Staphylococcus epidermidis (Coagulase-negative Staphylococcus) fluoroquinolone-resistant, Pseudomonas aeruginosa and Serratia marcescens, plus two controls (Staphylococcus aureus and E. coli) and incubated at 37° C. overnight on a shaker set at 250 rpm.
Control Bacteria—The two control bacteria (Staphylococcus aureus and E. coli) were treated as above.
Control Bacteria Set #1—this set of control bacteria were treated as the Streptococcus pneumoniae, Streptococcus viridans and Moraxella species (including Moraxella catarrhalis) test isolates above; the control bacteria underwent the same conditions as the test Streptococcus pneumoniae, Streptococcus viridans and Moraxella species (including Moraxella catarrhalis) isolates. This set of control bacteria was to determine whether there was a difference in the MICs by performing the MIC determinations in 2% lysed horse red blood cells with the standard method performed in Mueller-Hinton broth.
Control Bacteria Set #2—the control bacteria were added to 5 ml of Mueller-Hinton Broth without the 2% lysed horse red blood cells to achieve the standard inoculum concentration. This set of control bacteria is the normal control to determine whether the compounds are at the target MICs.
Control Bacteria Set #1—this set of control bacteria were treated as the Haemophilus influenzae test isolates above; the control bacteria underwent the same conditions as the test Haemophilus influenzae isolates. This set of control bacteria is to determine whether there was a difference in the MICs by performing the MIC determinations in HTM broth with the standard method performed in Mueller-Hinton broth.
Control Bacteria Set #2—the control bacteria were added to 5 ml of Mueller-Hinton Broth to achieve the standard inoculum concentration. This set of control bacteria is the normal control to determine whether the compounds are at the target MICs.
Ninety μl of the bacterial suspensions was dispensed in each well from column 1 to column 12. Each bacterial isolate was placed in one row of a 96 well polypropylene plate containing the test agents. The plates were placed on shaker at 15 minutes at room temperature, and then incubated at 37° C. overnight. MICs were determined visually as the lowest concentration of drug that inhibits visible bacterial growth.

## N=C(N)NCCCCC(=O)Nc1cc(C(F)(F)F)cc(NC(=O)c2cnc(C(=O)Nc3cc(C(F)(F)F)cc(NC(=O)CCCCNC(=N)N)c3SCCN)cn2)c1SCCN [Oligomer 5]
Control Bacteria E. coli D31
  Decrease of activity by addition of 2% lysed horse red blood cells to Mueller-Hinton broth: increase or have no effect
  Decrease of activity by use of HTM broth: no effect
Control Bacteria Set #1, run with Haemophilus influenzae MIC test, read-out: MIC
  MIC: 16 µg/mL (≈ 17.4 µM)
E. coli D31, Control for MIC Test SA-FQR, first batch
  MIC: 4 µg/mL (≈ 4.36 µM)
E. coli D31, Control for MIC Test SA-FQS, first batch
  MIC: 16 µg/mL (≈ 17.4 µM)
E. coli D31, new batches, Control Only 1
  MIC: 8 µg/mL (≈ 8.72 µM)
E. coli D31, new batches, Control Only 2
  MIC: 8 µg/mL (≈ 8.72 µM)
E. coli D31, new batches, Control Only 3
  MIC: 8 µg/mL (≈ 8.72 µM)
E. coli D31, new batches, Control Only 4
  MIC: 16 µg/mL (≈ 17.4 µM)
Escherichia coli, D31, Control Bacteria Set #1, run with Moraxella MIC test, read-out: MIC
  MIC: 2 µg/mL (≈ 2.18 µM)
Escherichia coli, D31, Control Only 1, read-out: MIC of control bacteria on day of MIC testing
  MIC: 8 µg/mL
Escherichia coli, D31, Control Only 2, read-out: MIC of control bacteria on day of MIC testing
  MIC: 8 µg/mL
Escherichia coli, D31, Control Only 3, read-out: MIC of control bacteria on day of MIC testing
  MIC: 8 µg/mL
Escherichia coli, D31, Control Only 4, read-out: MIC of control bacteria on day of MIC testing
  MIC: 16 µg/mL
Escherichia coli, D31, E. coli D31, Control Bacteria Set #1 (same conditions as test isolates), run with Streptococcus pneumoniae MIC test, read-out: MIC
  MIC: 2 µg/mL (≈ 2.18 µM)
Escherichia coli, D31, E. coli D31, Control Bacteria Set #1 (same conditions as test isolates), run with Streptococcus viridans group MIC test, read-out: MIC
  MIC: 2 µg/mL (≈ 2.18 µM)
Escherichia coli, D31, E. coli D31, Control Bacteria Set #2 (Mueller-Hinton Broth), run with Streptococcus pneumoniae MIC test, read-out: MIC
  MIC: 16 µg/mL (≈ 17.4 µM)
Escherichia coli, D31, E. coli D31, Control Bacteria Set #2 (Mueller-Hinton Broth), run with Streptococcus viridans group MIC test, read-out: MIC
  MIC: 16 µg/mL (≈ 17.4 µM)
Escherichia coli, D31, E. coli D31, control bacteria run with Pseudomonas aeruginosa MIC test, read-out: MIC
  MIC: 8 µg/mL (≈ 8.72 µM)
Escherichia coli, D31, E. coli D31, control bacteria run with S. aureus fluoroquinolone-resistant MIC test, read-out: MIC
  MIC: 4 µg/mL (≈ 4.36 µM)
Escherichia coli, D31, E. coli D31, control bacteria run with S. aureus fluoroquinolone-susceptible MIC test, read-out: MIC
  MIC: 16 µg/mL (≈ 17.4 µM)
Escherichia coli, D31, E. coli D31, control bacteria run with S. epidermidis fluoroquinolone-resistant MIC test, read-out: MIC
  MIC: 4 µg/mL (≈ 4.36 µM)
Escherichia coli, D31, E. coli D31, control bacteria run with S. epidermidis fluoroquinolone-susceptible MIC test, read-out: MIC
  MIC: 4 µg/mL (≈ 4.36 µM)
Escherichia coli, D31, E. coli D31, control bacteria run with Serratia marcescens MIC test, read-out: MIC
  MIC: 4 µg/mL (≈ 4.36 µM)
Escherichia coli, D31, E. coli D31, MIC previously obtained (target MIC), printed in parentheses, read-out: MIC for Control Bacteria within the parentheses
  MIC: 1.56 µg/mL (≈ 1.7 µM)
Escherichia coli, D31, E. coli D31, read-out: MIC
  MIC: 1.56 µg/mL (≈ 1.7 µM)
Escherichia coli, D31, control for MIC test HI (Control Bacteria Set #2), read-out: MIC of control bacteria on day of MIC testing
  MIC: 16 µg/mL
Escherichia coli, D31, control for MIC test MS (Control Bacteria Set #2), read-out: MIC of control bacteria on day of MIC testing
  MIC: 16 µg/mL
Escherichia coli, D31, control for MIC test PA, read-out: MIC of control bacteria on day of MIC testing
  MIC: 8 µg/mL
Escherichia coli, D31, control for MIC test SA-FQR, read-out: MIC of control bacteria on day of MIC testing
  MIC: 4 µg/mL
Escherichia coli, D31, control for MIC test SA-FQS, read-out: MIC of control bacteria on day of MIC testing
  MIC: 16 µg/mL
Escherichia coli, D31, control for MIC test SE-FQR, read-out: MIC of control bacteria on day of MIC testing
  MIC: 4 µg/mL
Escherichia coli, D31, control for MIC test SE-FQS, read-out: MIC of control bacteria on day of MIC testing
  MIC: 4 µg/mL
Escherichia coli, D31, control for MIC test SM, read-out: MIC of control bacteria on day of MIC testing
  MIC: 4 µg/mL
Escherichia coli, D31, control for MIC test SP, read-out: MIC of control bacteria on day of MIC testing
  MIC: 16 µg/mL
Escherichia coli, D31, control for MIC test SV, read-out: MIC of control bacteria on day of MIC testing
  MIC: 16 µg/mL
Escherichia coli, D31, reference MIC printed in parentheses beside the day's control value, read-out: MIC for Control Bacteria (within the parentheses)
  MIC: 1.56 µg/mL (≈ 1.7 µM)
